Results published in patent publication US12103920B2, “Cereblon binding compounds, compositions thereof, and methods of treatment therewith” (Celgene Corporation, priority 2020, dated 2024).
Where a name gives a salt, the structure may show the parent alone.

Target: T1, AR protein in VCaP cells (Homo sapiens, UniProt P10275)
T1 construct: endogenous in cells; host or cells: VCaP cells
T1 sequence (P10275 1-920): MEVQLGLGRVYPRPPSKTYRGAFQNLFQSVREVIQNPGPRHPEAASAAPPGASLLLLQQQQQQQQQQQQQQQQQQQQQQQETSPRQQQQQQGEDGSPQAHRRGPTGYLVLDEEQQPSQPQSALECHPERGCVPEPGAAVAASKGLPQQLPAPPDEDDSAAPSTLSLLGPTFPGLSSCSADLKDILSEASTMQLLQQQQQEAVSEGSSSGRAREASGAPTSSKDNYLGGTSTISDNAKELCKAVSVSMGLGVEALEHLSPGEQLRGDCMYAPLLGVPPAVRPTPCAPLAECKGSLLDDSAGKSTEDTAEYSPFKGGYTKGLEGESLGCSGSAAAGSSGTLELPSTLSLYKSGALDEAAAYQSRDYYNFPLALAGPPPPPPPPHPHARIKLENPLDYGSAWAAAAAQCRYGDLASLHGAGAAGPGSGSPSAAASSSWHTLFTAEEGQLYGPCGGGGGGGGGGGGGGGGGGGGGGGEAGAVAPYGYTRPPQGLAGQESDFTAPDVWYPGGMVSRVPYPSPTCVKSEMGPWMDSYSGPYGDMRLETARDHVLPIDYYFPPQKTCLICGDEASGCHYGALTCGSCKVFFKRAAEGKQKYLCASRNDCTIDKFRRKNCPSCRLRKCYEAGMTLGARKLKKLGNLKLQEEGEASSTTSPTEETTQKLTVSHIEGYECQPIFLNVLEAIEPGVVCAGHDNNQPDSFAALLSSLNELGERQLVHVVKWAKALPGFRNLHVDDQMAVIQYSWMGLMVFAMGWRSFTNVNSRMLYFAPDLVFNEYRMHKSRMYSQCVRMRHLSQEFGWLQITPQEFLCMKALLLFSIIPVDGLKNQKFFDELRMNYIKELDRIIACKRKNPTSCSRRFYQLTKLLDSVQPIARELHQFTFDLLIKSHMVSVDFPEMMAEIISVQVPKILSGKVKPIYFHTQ
Assay: VCAP AR Degradation Assay
Type: cell-based
Conditions: 24 h, AR ELISA; for DC50: concentration at 50% of DMSO control (50% AR degradation); for Y: lowest measured AR level normalized to DMSO control
Summary of the method: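 VCaP cells in DMEM with 8% FBS were treated 24 h at 37° C with a 10-point 1:3 series (top final 5 μM; 0.1% DMSO control). AR in lysates was measured by sandwich ELISA, normalized to DMSO as percent of control; DC50, EC50 and Ymin came from a four-parameter logistic fit.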

| SMILES | DC50 | Y |
| --- | --- | --- |
| C[C@@H]1CN(CCO[C@H]2CC[C@H](N3C(=S)N(c4cnc(C#N)c(C(F)(F)F)c4)C(=O)C3(C)C)CC2)C[C@H](C)N1CC(=O)Nc1cccc(NC2CCC(=O)NC2=O)c1 (stereo partly drawn) [Cmpd 5, 2-((2R,6S)-4-(2-((trans-4-(3-(6-Cyano-5-(trifluoromethyl)pyridin-3-yl)-5,5-dimethyl-4-oxo-2-thioxoimidazolidin-1-yl)cyclohexyl)oxy)ethyl)-2,6-dimethylpiperazin-1-yl)-N-(3-((2,6-dioxopiperidin-3-yl)amino)phenyl)acetamide hydrochloride] | ≤ 0.005 µM | *** (25%<Y<50%) |
| C[C@@H]1CN(CCC[C@H]2CC[C@H](N3C(=S)N(c4ccc(C#N)c(C(F)(F)F)c4)C(=O)C3(C)C)CC2)C[C@H](C)N1CC(=O)Nc1cccc(N[C@@H]2CCC(=O)NC2=O)c1 [Cmpd 6, 2-((2R,6S)-4-(3-(trans-4-(3-(4-Cyano-3-(trifluoromethyl)phenyl)-5,5-dimethyl-4-oxo-2-thioxoimidazolidin-1-yl)cyclohexyl)propyl)-2,6-dimethylpiperazin-1-yl)-N-(3-(((R)-2,6-dioxopiperidin-3-yl)amino)phenyl)acetamide hydrochloride] | 0.005 to 0.01 µM | * (0<Y≤15%) |
| C[C@@H]1CN(CCO[C@H]2CC[C@H](N3C(=S)N(c4ccc(C#N)c(S(F)(F)(F)(F)F)c4)C(=O)C3(C)C)CC2)C[C@H](C)N1CC(=O)Nc1cccc(NC2CCC(=O)NC2=O)c1 (stereo partly drawn) [Cmpd 7, 2-((2R,6S)-4-(2-((trans-4-(3-(4-Cyano-3-(pentafluoro-λ^6-sulfaneyl)phenyl)-5,5-dimethyl-4-oxo-2-thioxoimidazolidin-1-yl)cyclohexyl)oxy)ethyl)-2,6-dimethylpiperazin-1-yl)-N-(3-((2,6-dioxopiperidin-3-yl)amino)phenyl)acetamide hydrochloride] | 0.01 to 0.1 µM | *** (25%<Y<50%) |
| C[C@@H]1C[C@@H](CCO[C@H]2CC[C@H](N3C(=S)N(c4cnc(C#N)c(C(F)(F)F)c4)C(=O)C3(C)C)CC2)C[C@H](C)N1CC(=O)Nc1cccc(NC2CCC(=O)NC2=O)c1 (stereo partly drawn) [Cmpd 22, 2-((2S,4s,6R)-4-(2-(((trans)-4-(3-(6-Cyano-5-(trifluoromethyl)pyridin-3-yl)-5,5-dimethyl-4-oxo-2-thioxoimidazolidin-1-yl)cyclohexyl)oxy)ethyl)-2,6-dimethylpiperidin-1-yl)-N-(3-((2,6-dioxopiperidin-3-yl)amino)phenyl)acetamide] | ≤ 0.005 µM | * (0<Y≤15%) |
| C[C@@H]1C[C@H](OCC[C@H]2CC[C@H](N3C(=S)N(c4ccc(C#N)c(C(F)(F)F)c4)C(=O)C3(C)C)CC2)C[C@H](C)N1CC(=O)Nc1cccc(NC2CCC(=O)NC2=O)c1 (stereo partly drawn) [Cmpd 36, 2-((2R,4r,6S)-4-(2-((trans)-4-(3-(4-Cyano-3-(trifluoromethyl)phenyl)-5,5-dimethyl-4-oxo-2-thioxoimidazolidin-1-yl)cyclohexyl)ethoxy)-2,6-dimethylpiperidin-1-yl)-N-(3-((2,6-dioxopiperidin-3-yl)amino)phenyl)acetamide] | 0.01 to 0.1 µM | ** (15%<Y≤20%) |
| CC1(C)C(=O)N(c2cnc(C#N)c(C(F)(F)F)c2)C(=S)N1[C@H]1CC[C@H](OCCC2CCN(CC(=O)Nc3cccc(NC4CCC(=O)NC4=O)c3)CC2(F)F)CC1 (stereo partly drawn) [Cmpd 46, 2-(4-(2-(((trans)-4-(3-(6-Cyano-5-(trifluoromethyl)pyridin-3-yl)-5,5-dimethyl-4-oxo-2-thioxoimidazolidin-1-yl)cyclohexyl)oxy)ethyl)-3,3-difluoropiperidin-1-yl)-N-(3-((2,6-dioxopiperidin-3-yl)amino)phenyl)acetamide hydrochloride] | ≤ 0.005 µM | * (0<Y≤15%) |
| C[C@@H]1C[C@H](OCCO[C@H]2CC[C@H](N3C(=S)N(c4cnc(C#N)c(C(F)(F)F)c4)C(=O)C3(C)C)CC2)C[C@H](C)N1CC(=O)Nc1cccc(NC2CCC(=O)NC2=O)c1 (stereo partly drawn) [Cmpd 45, 2-((2R,4r,6S)-4-(2-(((trans)-4-(3-(6-Cyano-5-(trifluoromethyl)pyridin-3-yl)-5,5-dimethyl-4-oxo-2-thioxoimidazolidin-1-yl)cyclohexyl)oxy)ethoxy)-2,6-dimethylpiperidin-1-yl)-N-(3-((2,6-dioxopiperidin-3-yl)amino)phenyl)acetamide] | ≤ 0.005 µM | ** (15%<Y≤20%) |
| C[C@@H]1CN(CCCO[C@H]2CC[C@H](N3C(=S)N(c4ccc(C#N)c(C(F)(F)F)c4)C(=O)C3(C)C)CC2)C[C@H](C)N1CC(=O)Nc1cccc(NC2CCC(=O)NC2=O)c1 (stereo partly drawn) [Cmpd 12, 2-((2R,6S)-4-(3-((trans-4-(3-(4-Cyano-3-(trifluoromethyl)phenyl)-5,5-dimethyl-4-oxo-2-thioxoimidazolidin-1-yl)cyclohexyl)oxy)propyl)-2,6-dimethylpiperazin-1-yl)-N-(3-((2,6-dioxopiperidin-3-yl)amino)phenyl)acetamide hydrochloride] | 0.005 to 0.01 µM | *** (25%<Y<50%) |
| C[C@@H]1CN(CCC[C@H]2CC[C@H](N3C(=S)N(c4ccc(C#N)c(C(F)(F)F)c4)C(=O)C3(C)C)CC2)C[C@H](C)N1CC(=O)Nc1cccc(NC2CCC(=O)NC2=O)c1 (stereo partly drawn) [Cmpd 2, 2-((2R,6S)-4-(3-(trans-4-(3-(4-Cyano-3-(trifluoromethyl)phenyl)-5,5-dimethyl-4-oxo-2-thioxoimidazolidin-1-yl)cyclohexyl)propyl)-2,6-dimethylpiperazin-1-yl)-N-(3-((2,6-dioxopiperidin-3-yl)amino)phenyl)acetamide] | 0.01 to 0.1 µM | * (0<Y≤15%) |
| C[C@@H]1CN(CCC[C@H]2CC[C@H](N3C(=S)N(c4ccc(C#N)c(Cl)c4)C(=O)C3(C)C)CC2)C[C@H](C)N1CC(=O)Nc1cccc(NC2CCC(=O)NC2=O)c1 (stereo partly drawn) [Cmpd 14, 2-((2S,6R)-4-(3-(trans-4-(3-(3-Chloro-4-cyanophenyl)-5,5-dimethyl-4-oxo-2-thioxoimidazolidin-1-yl)cyclohexyl)propyl)-2,6-dimethylpiperazin-1-yl)-N-(3-((2,6-dioxopiperidin-3-yl)amino)phenyl)acetamide hydrochloride] | 0.01 to 0.1 µM | *** (25%<Y<50%) |
